# Laboratory results reported in patent US11213030B2, “4-(3,4-dihydronaphth-1-yl or 2H-chromen-4-yl)-5-hydroxy-2H-pyradizin-3-ones as herbicides” (FMC Corporation, priority 2017, dated 2022).
# Assays:
# Format in all cases: in vivo
# [1] = test system: barnyardgrass (Echinochloa crus-galli); test: Test A preemergence, barnyardgrass; conditions: 0 to 100 scale
# Description: (§1) Seeds of plant species selected from barnyardgrass (Echinochloa crus-galli), kochia (Kochia scoparia), ragweed (common ragweed, Ambrosia elatior), ryegrass, It. (Italian ryegrass, Lolium multiflorum), foxtail, green (green foxtail, Setaria viridis), and pigweed (Amaranthus retroflexus) were planted into a blend of loam soil and sand and treated preemergence with a directed soil spray using test chemicals formulated in a non-phytotoxic solvent mixture which included a surfactant. At the same time, plants selected from these weed species and also wheat (Triticum aestivum), corn (Zea mays), blackgrass (Alopecurus myosuroides), and galium (catchweed bedstraw, Galium aparine) were planted in pots containing the same blend of loam soil and sand and treated with postemergence applications of test chemicals formulated in the same manner. Plants ranged in height from 2 to 10 cm and were in the one- to two-leaf stage for the postemergence treatment. Treated plants and untreated controls were maintained in a greenhouse for approximately 10 d, after which time all treated plants were compared to untreated controls and visually evaluated for injury. Plant response ratings, summarized in Table A, are based on a 0 to 100 scale where 0 is no effect and 100 is complete control. A dash (-) response means no test result.
# kochia (Kochia scoparia) [2] = test: Test A preemergence, kochia; conditions: 125 g ai/ha, 0 to 100 scale
# Description: as §1
# [3] = test system: ragweed (common ragweed, Ambrosia elatior); test: Test A preemergence, ragweed; conditions: 0 to 100 scale
# Description: as §1
# [4] = test system: ryegrass, It. (Italian ryegrass, Lolium multiflorum); test: Test A preemergence, Italian ryegrass; conditions: 0 to 100 scale
# Description: as §1
# [5] = test system: foxtail, green (green foxtail, Setaria viridis); test: Test A preemergence, green foxtail; conditions: 31 g ai/ha, 0 to 100 scale
# Description: as §1
# [6] = test system: pigweed (Amaranthus retroflexus); test: Test A preemergence, pigweed; conditions: 0 to 100 scale
# Description: as §1
# [7] = test system: barnyardgrass (Echinochloa crus-galli); test: Test A postemergence, barnyardgrass; conditions: 0 to 100 scale
# Description: as §1
# kochia (Kochia scoparia) [8] = test: Test A postemergence, kochia; conditions: 0 to 100 scale
# Description: as §1
# [9] = test system: ragweed (common ragweed, Ambrosia elatior); test: Test A postemergence, ragweed; conditions: 0 to 100 scale
# Description: as §1
# [10] = test system: ryegrass, It. (Italian ryegrass, Lolium multiflorum); test: Test A postemergence, Italian ryegrass; conditions: 0 to 100 scale
# Description: as §1
# [11] = test system: pigweed (Amaranthus retroflexus); test: Test A postemergence, pigweed; conditions: 0 to 100 scale
# Description: as §1
# [12] = test system: wheat (Triticum aestivum); test: Test A postemergence, wheat; conditions: 0 to 100 scale
# Description: as §1
# corn (Zea mays) = test: Test A postemergence, corn; conditions: 0 to 100 scale
# Description: as §1
# [13] = test system: blackgrass (Alopecurus myosuroides); test: Test A postemergence, blackgrass; conditions: 0 to 100 scale
# Description: as §1
# [14] = test system: galium (catchweed bedstraw, Galium aparine); test: Test A postemergence, galium; conditions: 0 to 100 scale
# Description: as §1
# [15] = test system: barnyardgrass (Echinochloa crus-galli); test: Test B flooded paddy test, barnyardgrass; conditions: Flood, 250 g ai/ha applied to paddy water, 2-leaf stage, 13 to 15 d; scale of 0 to 100 where 0 is no effect and 100 is complete control
# Method: (§2) Plant species in the flooded paddy test selected from rice (Oryza sativa), sedge, umbrella (small-flower umbrella sedge, Cyperus difformis), ducksalad (Heteranthera limosa), and barnyardgrass (Echinochloa crus-galli) were grown to the 2-leaf stage for testing. At the time of treatment, test pots were flooded to 3 cm above the soil surface, treated by application of test compounds directly to the paddy water, and then maintained at that water depth for the duration of the test. Treated plants and controls were maintained in a greenhouse for 13 to 15 d, after which time all species were compared to controls and visually evaluated. Plant response ratings, summarized in Table B, are based on a scale of 0 to 100 where 0 is no effect and 100 is complete control. A dash (-) response means no test result.
# [16] = test system: ducksalad (Heteranthera limosa); test: Test B flooded paddy test, ducksalad; conditions: Flood, 250 g ai/ha applied to paddy water, 2-leaf stage, 13 to 15 d; scale of 0 to 100 where 0 is no effect and 100 is complete control
# Method: as §2
# rice (Oryza sativa) = test: Test B flooded paddy test, rice; conditions: Flood, 250 g ai/ha applied to paddy water, 2-leaf stage, 13 to 15 d; scale of 0 to 100 where 0 is no effect and 100 is complete control
# Method: as §2
# [17] = test system: sedge, umbrella (small-flower umbrella sedge, Cyperus difformis); test: Test B flooded paddy test, umbrella sedge; conditions: Flood, 250 g ai/ha applied to paddy water, 2-leaf stage, 13 to 15 d; scale of 0 to 100 where 0 is no effect and 100 is complete control
# Method: as §2
# Foxtail, Giant [18] = test: Test A postemergence, giant foxtail; conditions: 0 to 100 scale
# Foxtail, Giant [19] = test: Test A preemergence, giant foxtail; conditions: 125 g ai/ha, 0 to 100 scale
structure (smiles),measurement,setting,value
CC1=C(c2c(O)c(Cl)nn(C)c2=O)c2cc(C)ccc2CC1 [Compound 8],"Plant response rating, Barnyardgrass",[1]; 31 g ai/ha,0
same,"Plant response rating, Barnyardgrass",[1]; 125 g ai/ha,60
same,"Plant response rating, Kochia",kochia (Kochia scoparia) [2],10
same,"Plant response rating, Ragweed",[3]; 31 g ai/ha,0
same,"Plant response rating, Ragweed",[3]; 125 g ai/ha,30
same,"Plant response rating, Ryegrass, It.",[4]; 31 g ai/ha,0
same,"Plant response rating, Ryegrass, It.",[4]; 125 g ai/ha,10
same,"Plant response rating, Foxtail, Green",[5],0
same,"Plant response rating, Pigweed",[6]; 31 g ai/ha,10
same,"Plant response rating, Pigweed",[6]; 125 g ai/ha,100
same,"Plant response rating, Barnyardgrass",[7]; 31 g ai/ha,50
same,"Plant response rating, Barnyardgrass",[7]; 125 g ai/ha,80
same,"Plant response rating, Kochia",kochia (Kochia scoparia) [8]; 31 g ai/ha,40
same,"Plant response rating, Kochia",kochia (Kochia scoparia) [8]; 125 g ai/ha,50
same,"Plant response rating, Ragweed",[9]; 31 g ai/ha,80
same,"Plant response rating, Ragweed",[9]; 125 g ai/ha,100
same,"Plant response rating, Ryegrass, It.",[10]; 31 g ai/ha,40
same,"Plant response rating, Ryegrass, It.",[10]; 125 g ai/ha,80
same,"Plant response rating, Pigweed",[11]; 31 g ai/ha,90
same,"Plant response rating, Pigweed",[11]; 125 g ai/ha,100
same,"Plant response rating, Wheat",[12]; 31 g ai/ha,0
same,"Plant response rating, Wheat",[12]; 125 g ai/ha,0
same,"Plant response rating, Corn",corn (Zea mays); 31 g ai/ha,0
same,"Plant response rating, Corn",corn (Zea mays); 125 g ai/ha,20
same,"Plant response rating, Blackgrass",[13]; 31 g ai/ha,20
same,"Plant response rating, Blackgrass",[13]; 125 g ai/ha,30
same,"Plant response rating, Galium",[14]; 31 g ai/ha,90
same,"Plant response rating, Galium",[14]; 125 g ai/ha,90
same,"Plant response rating, Barnyardgrass",[15],60
same,"Plant response rating, Ducksalad",[16],90
same,"Plant response rating, Rice",rice (Oryza sativa),0
same,"Plant response rating, Sedge, Umbrella",[17],95
same,"Plant response rating, Foxtail, Giant","Foxtail, Giant [18]; 31 g ai/ha",60
same,"Plant response rating, Foxtail, Giant","Foxtail, Giant [18]; 125 g ai/ha",80
same,"Plant response rating, Foxtail, Giant","Foxtail, Giant [19]",70
